Data published in patent EP3892734B1, “SCREENING METHODS AND THERAPEUTIC APPLICATIONS BASED ON BACTERIAL MOTILITY INHIBITION” (Ludwig-Maximilians-Universität München, priority 2020, dated 2021).
≈ marks a conversion by molar mass, not a printed value. Where “and” joins values, the source holds several entries; their conditions need not be identical. Identical values can stand only once. Entries after “also recorded” stand apart in the source; their conditions may differ. Like-named read-outs stand apart in the source and are kept apart here.

Key:
[1] = test system: H. pylori flaA-luciferase reporter strain N6; test: microbe, parasite or virus in culture; format: cell-based, Helicobacter pylori; settings: for inhibitory activity in luciferase reporter assay: result in words; for Weak activity (% of non-inhibited control): flaA-luciferase reporter strain N6, IC50 not determined
From the text: The H. pylori flaA promoter was fused with a luciferase operon (luxAB) from Vibrio harveyi in a H. pylori suicide plasmid (Niehus, Ye, Suerbaum, & Josenhans, 2002). The flaA reporter fusion was recombined into the H. pylori chromosome and the resulting strain tested to be strongly luminescence positive. The reporter strain (N6 flaA-lux4B) activated luminescence to about 40,000 to 60,000 counts per second using luciferase substrate at an OD600 of 0.8 (mid-log phase) in liquid culture. The negative control value of a non-reporter strain or reporter strain without luminescence substrate was close to zero. […] The Z-Factor (Zhang et al., 1999) determined for the assay with various bacterial inhibitors measured in quadruplicates or triplicates was routinely between 0.6 and 0.7, with a confidence interval of 95%.
H. pylori luminescence reporter strains were passaged on blood agar plates less than 22 hours prior to the start of the experiment. The passage number for these assays was not higher than five to preserve the strain's properties and genetic stability. Luciferase reaction buffer was prepared as follows: 50 mM disodium phosphate (Na2HPO4) and 2% BSA were dissolved in HPLC water, filter sterilized, aliquoted and frozen at - 20°C.
Bacteria were harvested in brain-heart infusion medium (BHI, 3% yeast extract with 5% horse serum added) and adjusted to an OD600 of 0.8 at room temperature. 50 µl of the bacterial suspension were added per well of a 96 well plate (non-binding, Greiner Bio-One 655901). 2 µl of each of the test compounds (provided as a 10 mM DMSO solution) were added to the sample wells. The same amount of pure, diluted DMSO was added to the control wells for a concentration of a maximum of 4% DMSO per well, since higher concentrations will interfere with metabolic functions of H. pylori and cause false negative results. The microwell plate was incubated inside a sterile sealed PM Gas Bag (BIOLOG #3032) together with a CampyGen Compact pack (Oxoid) to generate microaerobic conditions at 37°C and with shaking at 175 rpm for 4 h.
Shortly before taking the measurement, the luciferase substrate was prepared by diluting the luminescence substrate decanal (10% stock, Sigma Aldrich) at a 1 :2,000 dilution in luciferase reaction buffer. 60 µl of the substrate were added per well of a white 96 microwell plate (Thermo Scientific #236105) without the lid.
For the final luciferase measurement, 10 µl of bacterial solution were transferred with the epMotion 96 (Eppendorf) simultaneously to the wells containing the luciferase substrate and incubated on a microwell plate shaker for 10 s to lyse the bacteria. The measurements were recorded with a Perkin Elmer Victor 3/WNallac 1420 plate reader (luminometry, measurement time: 0.5 sec) and integrated to counts per sec. For the background measurement, 10 µl sterile medium containing 4% DMSO was added to the wells. For each measurement, at least four luciferase reporter positive control wells (without inhibitory compound) and four negative control wells (background without bacteria) were run on the same day and under the same assay conditions in parallel.

H. pylori = test: therapeutic treatment in chronic H. pylori mouse infection model (cfu counts, cagL PCR); format: in vivo, C57B/L6 mice
Experimental: 6-8 weeks old specific pathogen-free C57B/L6 mice were obtained from Charles River Laboratories. They were acclimatized to the new surroundings for one week before starting the assays. For the whole duration of the experiment, mice had access to sterile chow and sterile water ad libitum. In week one of the experiment, H. pylori was administered at 3×10^8 bacteria per mouse per inoculum (100 µl) on two days with one day of break in between. The proof-of-principle treatment was started two weeks after the end of the inoculation week, assuming a stable infection at this time point. The mice were treated in separate groups (8-14 animals per group), as outlined in the results, with compound(s), antibiotic (metronidazole at 14.3 mg/kg/day), a combination of both antibiotic and compound (for concentrations, see Results), or mock-treated once daily over seven consecutive days by intra-gastric gavage. After the treatment week, the mice were kept for another two weeks under normal housing and feeding conditions with sterilized chow and sterile water ad libitum. At the end of the assay period (week seven), the mice were necropsied by cervical dislocation under CO2 anesthesia. The animal experiments were authorized under German federal law by the LAVES (Lower Saxony Government Authority).
Then, BL2 was further tested for therapeutic efficacy in a mouse model of chronic H. pylori infection (Fig. 5). Six groups of mice (10 mice per group in each of the four infected and/or treated groups, and six mice in both of the control groups) were established in this mouse treatment trial. For the treatment groups, mice were infected in week one (using ca. 3×10^8 bacteria per animal; Methods), and the chronic infection was manifested for two more weeks. The once-daily treatment (intragastric gavage) started in week four on seven consecutive days. For the treatment groups, three H. pylori-infected groups were evaluated in parallel. One dose of treatment was given daily.
Group one was treated with metronidazole (14.3 mg/kg/day) only, an established anti-H. pylori antibiotic. The antibiotic concentration corresponds to concentrations routinely used in human treatment. Group two was treated with metronidazole (dosed at 14.3 mg/kg/day) and BL2 (10 mg/kg/day) in combination, and group three received BL2 (10 mg/kg/day) only. In addition, one infected and mock-treated group was kept as positive control, and two mock-infected groups were set aside, one for administering BL2 only (10 mg/kg/day; microbiota compound control) and one which was mock-infected and mock-treated (microbiota null control).
The read-out of successful treatment was the reduction of colony-forming units (cfus) of bacteria in infected and treated mice, over infected, non-treated, mice, at the end of the experiment. […] All mice in the infected positive control group were colonized (both cfu counts and PCR-positive), although the cfu counts in three positive animals were rather low.

H. pylori N6 = test: vitality / metabolic (respiratory inhibition) counter-screen; format: cell-based, Helicobacter pylori; settings: > 100% indicates no inhibition
[2] = Helicobacter pylori, H. pylori flaA-luciferase reporter strain N6, Table 6
[3] = H. pylori flaA-luciferase reporter strain N6, Table 6

CCn1c(CSC(=N)N)c(Br)c(=O)n1-c1ccccc1 [DJ-11]
IC50 [1, 2]: 10.6 µg/mL (≈ 29.7 µM)

Cn1c(CSC(=N)N)c(Br)c(=O)n1-c1ccc(C(F)(F)F)cc1 [DJ-10, (4-bromo-2-methyl-5-oxo-1-(4'-(trifluoromethyl)phenyl)-2,5-dihvdro-1H-pyrazol-3-yl)methyl carbamimidothioate]
IC50 [1, 2]: 10.8 µg/mL (≈ 26.5 µM)

Cn1c(CN)c(Br)c(=O)n1-c1ccccc1 [DJ-4, 5-(aminomethyl)-4-bromo-1-methyl-2-phenyl-1,2-dihydro-3H-pyrazol-3-one]
IC50 [1, 3]: No IC50 | inhibitory activity in luciferase reporter assay [1]: No inhibitory activity was detectable

CCn1c(CS)c(Br)c(=O)n1-c1ccccc1 [DJ-12]
IC50 [1, 2]: < 4.5 µg/mL

CC1(C)S[C@@H]2[C@H](NC(=O)[C@H](N)c3ccccc3)C(=O)N2[C@H]1C(=O)O [ampicillin, reference compound]
inhibitory activity in luciferase reporter assay [1]: did not alter the readings in the luciferase reporter assay

Cc1ncc([N+](=O)[O-])n1CCO [metronidazole, reference compound]
reduction of colony-forming units (cfus) / bacterial loads in stomach (H. pylori; BL2 10 mg/kg/day, metronidazole 14.3 mg/kg/day, once daily, 7 days, intragastric gavage, versus infected control): significantly reduced bacterial counts; also recorded: left no bacterial counts | gene-specific (cagL) PCR signal in stomach homogenates (H. pylori; two weeks post-treatment): strong residual bacterial load; also recorded: all mice still had detectable specific bacterial (PCR) signal; also recorded: still readily detectable by PCR

Cn1c(CSCCO)c(Br)c(=O)n1-c1ccccc1 [DJ-3, 4-bromo-5-(((2-hydroxyethyl)thio)methyl)-1-methyl-2-phenyl-1,2-dihydro-3H-pyrazol-3-one]
IC50 [1, 3]: No IC50 | inhibitory activity in luciferase reporter assay [1]: No inhibitory activity was detectable

Cc1cc(C)cc(-n2c(=O)c(Br)c(CSC(=N)N)n2C)c1 [DJ-6, (4-bromo-1-(3',5'-dimethylphenyl)-2-methyl-5-oxo-2,5-dihydro-1H-pyrazol-3-yl)methyl carbamimidothioate]
IC50 [1, 2]: < 4.5 µg/mL

carbonyl cyanide m-chlorophenyl hydrazine [CCCP, reference compound]
inhibitory activity in luciferase reporter assay [1]: inhibited the luminescence reporter activity

Cc1ccc(-n2c(=O)c(Br)c(CSC(=N)N)n2C)cc1 [DJ-5, (4-bromo-2-methyl-5-oxo-1-(p-tolyl)-2,5-dihydro-1H-pyrazol-3-yl)methyl carbamimidothioate]
IC50 [1, 2]: < 4.5 µg/mL

Cn1c(CSC(=N)N)c(Br)c(=O)n1-c1ccc(-c2ccccc2)cc1 [DJ-8, (1-([1',1"-biphenyl]-4'-yl)-4-bromo-2-methyl-5-oxo-2,5-dihydro-1H-pyrazol-3-yl)methyl carbamimidothioate]
IC50 [1, 2]: < 4.5 µg/mL

Cn1c(CSC(=N)N)c(Br)c(=O)n1-c1ccccc1 [DJ-1, (4-bromo-2-methyl-5-oxo-1-phenyl-2,5-dihydro-1H-pyrazol-3-yl)methyl carbamimidothioate]
Luciferase assay (% of control) ([1]; H. pylori screen): 1,4 % of control | IC50 [1, 2]: < 4.5 µg/mL | IC50 ([1]; Helicobacter pylori, read-out: IC50 (luciferase assay), luciferase flagellar reporter assay, Table 3): 3.05 µg/mL and 10.3 µM | Metabolic assay (% of control) (H. pylori N6): 107,7 % of control

C=C(C)[C@H]1Cc2c(ccc3c2O[C@@H]2COc4cc(OC)c(OC)cc4[C@@H]2C3=O)O1 [rotenone, reference compound]
inhibitory activity in luciferase reporter assay [1]: inhibited the luminescence reporter activity

Cn1c(CS)c(Br)c(=O)n1-c1ccccc1 [DJ-2, 4-bromo-5-(mercaptomethyl)-1-methyl-2-phenyl-1,2-dihydro-3H-pyrazol-3-one]
IC50 [1, 3]: 0.44 µg/mL (≈ 1.47 µM)

Cn1c(CSC(=N)N)c(Br)c(=O)n1-c1ccccn1 [DJ-13]
Weak activity (% of non-inhibited control) [1]: Weak activity (+/- 50 % of non-inhibited control) (IC50 not determined) | inhibitory activity in luciferase reporter assay [1]: detectable yet weaker inhibitory activity

Cc1ccc(-n2c(=O)c(Br)c(CSCc3c(Br)c(=O)n(-c4ccc(C)cc4)n3C)n2C)cc1 [DJ-14, 5,5'-(thiobis(methylene))bis(4-bromo-1-methyl-2-(p-tolyl)-1,2-dihydro-3H-pyrazol-3-one)]
Weak activity (% of non-inhibited control) [1]: Weak activity (+/- 90 % of control) (IC50 not determined) | inhibitory activity in luciferase reporter assay [1]: detectable yet weaker inhibitory activity

CC(C)c1ccc(-n2c(=O)c(Br)c(CSC(=N)N)n2C)cc1 [DJ-7, (4-bromo-1-(4'-isopropylphenyl)-2-methyl-5-oxo-2,5-dihydro-1H-pyrazol-3-vl)methyl carbamimidothioate]
IC50 [1, 2]: < 4.5 µg/mL

Cn1c(CSC(=N)N)c(Br)c(=O)n1-c1ccc(Cl)cc1 [DJ-9, (4-bromo-1-(4'-chlorophenyl)-2-methyl-5-oxo-2,5-dihydro-1H-pyrazol-3-vl)methyl carbamimidothioate]
IC50 [1, 2]: < 4.5 µg/mL
